One assay deals with S. aureus (SA) agr-II. The conditions noted are these: fluorescence, cited from earlier work.
The target of the next assay is S. aureus agr-II (Staphylococcus aureus, UniProt O33587). As to the kind of experiment: cell-based. As for the experimental part: (§1) Peptides were evaluated for the ability to interfere with agr-mediated quorum sensing in S. aureus (AH1677, AH430, AH1747, and AH1872 for agr-I–IV, respectively) ([40]) using reporter strains expressing yellow fluorescent protein (YFP) upon agr activation. Interference with agr-mediated quorum sensing in S. epidermidis (AH3408, AH3623, and AH3409 for agr-I–III, respectively) ([45]), and S. lugdunensis (AH4031 for agr-I) ([37]) was evaluated using reporter strains expressing superfolder green fluorescent protein (sGFP) upon agr activation. Overnight cultures of the reporter strains were grown in TSB medium containing chloramphenicol (CAM, 10 μg/mL for S. aureus) or erythromycin (ERM, 10 μg/mL of S. epidermidis and S. lugdunensis) and diluted 1:100 in fresh TSB medium containing the same antibiotic. Assays were performed in sterile black 96-well plates with a clear bottom. […] DMSO stock solutions of peptides (1 mM) were diluted in TSB media and added (15 μL) in technical triplicate to the 96-well plate, followed by diluted bacterial overnight cultures (135 μL). Control wells for 100% agr activity were wells replacing the peptide solution with TSB medium (15 μL). […] Wells containing 150 μL TSB medium were used to measure background fluorescence. The 96-well plates were incubated in a humidified incubator at 37°C shaking at 1,000 rpm for 22–24 h and fluorescence (for GFP: excitation 479 nm, emission 520 nm; for YFP: excitation 500 nm, emission 541 nm; automatic gain), and OD600 values were subsequently measured using a plate reader. Background fluorescence was subtracted from all wells and further normalized to the corresponding OD600 value of the respective wells. The average fluorescence of control wells was used as a relative measure for 100% activation of the agr-circuit, and bar graphs were generated using GraphPad Prism 10.4 software. All assays were performed in at least a biological duplicate.
(§2) Overnight cultures of the reporter strains were grown in TSB medium containing chloramphenicol (CAM, 10 μg/mL for S. aureus) or erythromycin (ERM, 10 μg/mL of S. epidermidis and S. lugdunensis) and diluted 1:100 in fresh TSB medium containing the same antibiotic. Assays were performed in sterile black 96-well plates with clear bottoms. Peptide solutions (15 μL) in 1:5 serial dilutions from DMSO stock solutions (1 mM) in TSB medium were added to the 96-well plate in technical duplicate followed by diluted bacterial overnight cultures (135 μL). Control wells for 100% agr activity were wells replacing the peptide solution with TSB medium (15 μL). Wells containing 150 μL TSB medium were used to measure background fluorescence. The 96-well plates were incubated in a humidified incubator at 37°C shaking at 1,000 rpm for 22–24 h and fluorescence (for GFP: excitation 479 nm, emission 520 nm; for YFP: excitation 500 nm, emission 541 nm; automatic gain), and OD600 values were subsequently measured using a plate reader. Background fluorescence was subtracted from all wells and further normalized to the corresponding OD600 value of the respective wells. The average fluorescence of control wells was used as a relative measure for 100% activation of the agr-circuit. Relative agr activity was plotted to obtain IC50 values by non-linear regression with variable slope using GraphPad Prism 10.4 software. All assays were performed in biological triplicate.

The target in a further assay is SA AgrC-II (Staphylococcus aureus, UniProt O33587). Kind of assay: β-Lactamase assay, reporter strain RN10829 (P2-agrA:P3-blaZ) with pagrC-II. The class given is cell-based. The conditions noted are these: for IC50, SA AgrC-II, b-lactamase assay: 100 nM cognate AIP, ± SEM, -b = no inhibition recorded at the highest AIP concentration tested, -a = only partial inhibition observed, this study (curves in Fig. S20). The source says: (§3) The β-lactamase reporter strain RN10829 (P2-agrA:P3-blaZ) ([62]), with pagrC-I ([63]), pagrC-II, pagrC-III, or pagrC-IV ([11]), substituting the native agr locus with a chromosomal integration of P2-agrA and P3-blaZ and a plasmid from which a wild-type variant of the corresponding AgrC is expressed, was used to assess inhibition and activation of the AgrC receptor via β-lactamase activity in response to varying concentrations of the QS modulating peptides. Overnight cultures of the reporter strains in TSB medium were diluted 1:250 in fresh TSB medium and grown to OD600 = 0.35–0.40 (early exponential phase) at 37°C. Peptide solutions (10 μL) in 1:10 serial dilutions from DMSO stock solutions (1 mM) in TSB medium (final concentrations = 10 μM–10 pM) were added to each well of a clear 96-well plate as well as solutions (10 μL) of cognate AIP (final concentration = 100 nM) in TSB medium followed by 80 μL of bacterial cells. Control wells for 100% β-lactamase activity were wells replacing peptide solution with TSB media (10 μL), and control wells for 0% β-lactamase activity were wells replacing both peptide and cognate AIP solutions with TSB medium (20 μL). The 96-well plates were incubated at 37°C shaking at 200 rpm for 1 h and immediately frozen down at −80°C to minimize growth during nitrocefin treatment. Next, the 96-well plates were thawed, and OD600 values were determined using a plate reader followed by the addition of 50 μL of nitrocefin solution to the wells (final concentration = 33.3 μg/mL). β-Lactamase activity was monitored at OD486 every 20 s for 10 min at 37°C using a plate-reader. Linear nitrocefin conversion rates were plotted to obtain IC50 values by non-linear regression with variable slope using GraphPad Prism 10.4 software. Assays were performed at least as duplicate determinations in biological triplicate.

The next assay has as its system S. aureus (SA) agr-III. To be noted: fluorescence, cited from earlier work.
Another assay addresses SA AgrC-IV (Staphylococcus aureus, UniProt Q309Z2). Kind of assay: β-Lactamase assay, reporter strain RN10829 (P2-agrA:P3-blaZ) with pagrC-IV. It is filed as cell-based. To be noted: for IC50, SA AgrC-IV, b-lactamase assay: 100 nM cognate AIP, ± SEM, -b = no inhibition recorded at the highest AIP concentration tested, -a = only partial inhibition observed, this study (curves in Fig. S22).
From the text: as §3

The target in the next assay is S. aureus agr-IV (Staphylococcus aureus, UniProt Q309Z2). Kind of assay: cell-based. The conditions noted are these: fluorescent reporter strain; peptides tested at 1000, 50, 2.5, 0.125 nM or in dose-response. It is filed as cell-based. As for the experimental part:
as §1, §2

For another assay, the target named is S. epidermidis agr-III (Staphylococcus epidermidis, UniProt Q8VSX2). Kind of assay: cell-based. It is filed as cell-based. As for the experimental part: as §1, §2
The target in a further assay is SA AgrC-III (Staphylococcus aureus, UniProt O33590). As to the kind of experiment: β-Lactamase assay, reporter strain RN10829 (P2-agrA:P3-blaZ) with pagrC-III. It is filed as cell-based. The conditions noted are these: for IC50, SA AgrC-III, b-lactamase assay: 100 nM cognate AIP, ± SEM, -b = no inhibition recorded at the highest AIP concentration tested, -a = only partial inhibition observed, this study (curves in Fig. S21).
From the text: as §3

Another assay has as its system S. aureus (SA) agr-IV. The conditions noted are these: fluorescence, cited from earlier work.
The next assay addresses SA AgrC-I (Staphylococcus aureus, UniProt O07911). Kind of assay: β-Lactamase assay, reporter strain RN10829 (P2-agrA:P3-blaZ) with pagrC-I. It is filed as cell-based.
From the text: as §3, with “Control wells for 100% β-lactamase activity were wells replacing peptide solution with TSB media (10 μL), and control wells for 0% β-lactamase activity were wells replacing both peptide and cognate AIP solutions with TSB medium (20 μL).” left out

In a further assay the test system is S. aureus (SA) agr-I. The conditions noted are these: fluorescence, cited from earlier work.
For assay [1], the system named is S. epidermidis (SE) agr-I. To be noted: fluorescence, cited from earlier work.
Assay [2] relates to S. epidermidis (SE) agr-III. To be noted: fluorescence, cited from earlier work.
Assay [3] concerns S. epidermidis (SE) agr-II. The conditions noted are these: fluorescence, cited from earlier work.

Where two headings read alike, the source gives them in different places. Positions of bridges follow the written chain, without caps; N, C: chain ends. Residues, ends and D or L forms follow the SMILES beside them. Bounds are passed on as bounds.

Sequence of SA AgrC-III (O33590 entry or part of it): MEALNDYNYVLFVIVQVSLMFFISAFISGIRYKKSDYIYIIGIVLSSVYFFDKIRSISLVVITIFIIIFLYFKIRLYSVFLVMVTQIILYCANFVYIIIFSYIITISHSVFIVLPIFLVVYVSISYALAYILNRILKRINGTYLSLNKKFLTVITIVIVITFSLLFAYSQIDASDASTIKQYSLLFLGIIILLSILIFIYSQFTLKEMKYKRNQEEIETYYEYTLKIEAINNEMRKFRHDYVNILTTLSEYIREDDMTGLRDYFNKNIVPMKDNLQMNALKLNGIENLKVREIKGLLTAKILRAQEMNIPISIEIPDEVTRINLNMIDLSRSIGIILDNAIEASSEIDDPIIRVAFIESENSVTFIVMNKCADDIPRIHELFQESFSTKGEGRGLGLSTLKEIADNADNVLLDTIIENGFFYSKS
Sequence of SA AgrC-IV (Q309Z2 entry or part of it): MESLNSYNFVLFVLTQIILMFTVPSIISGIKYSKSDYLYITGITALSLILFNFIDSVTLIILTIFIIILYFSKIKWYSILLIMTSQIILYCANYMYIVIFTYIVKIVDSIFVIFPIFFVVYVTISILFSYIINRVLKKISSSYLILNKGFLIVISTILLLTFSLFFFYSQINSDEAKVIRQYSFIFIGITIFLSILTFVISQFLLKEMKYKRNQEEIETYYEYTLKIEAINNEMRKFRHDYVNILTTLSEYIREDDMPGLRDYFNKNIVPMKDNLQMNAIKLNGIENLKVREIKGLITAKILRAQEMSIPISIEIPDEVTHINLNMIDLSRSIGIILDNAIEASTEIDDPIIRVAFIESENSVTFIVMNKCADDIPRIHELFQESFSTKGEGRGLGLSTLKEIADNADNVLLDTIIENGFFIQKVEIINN
Sequence of SA AgrC-II (O33587 entry or part of it): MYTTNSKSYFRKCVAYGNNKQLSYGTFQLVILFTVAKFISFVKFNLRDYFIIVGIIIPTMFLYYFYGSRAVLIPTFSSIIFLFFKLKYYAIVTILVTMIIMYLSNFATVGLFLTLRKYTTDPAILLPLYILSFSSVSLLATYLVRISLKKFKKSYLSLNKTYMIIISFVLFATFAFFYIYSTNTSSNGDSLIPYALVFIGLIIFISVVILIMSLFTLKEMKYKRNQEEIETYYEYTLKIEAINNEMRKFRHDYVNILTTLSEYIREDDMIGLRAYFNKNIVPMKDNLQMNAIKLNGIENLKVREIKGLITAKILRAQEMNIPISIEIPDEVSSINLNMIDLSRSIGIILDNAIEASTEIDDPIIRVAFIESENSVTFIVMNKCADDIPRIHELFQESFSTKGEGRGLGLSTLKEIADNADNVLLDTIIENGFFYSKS
Sequence of SA AgrC-I (O07911 entry or part of it): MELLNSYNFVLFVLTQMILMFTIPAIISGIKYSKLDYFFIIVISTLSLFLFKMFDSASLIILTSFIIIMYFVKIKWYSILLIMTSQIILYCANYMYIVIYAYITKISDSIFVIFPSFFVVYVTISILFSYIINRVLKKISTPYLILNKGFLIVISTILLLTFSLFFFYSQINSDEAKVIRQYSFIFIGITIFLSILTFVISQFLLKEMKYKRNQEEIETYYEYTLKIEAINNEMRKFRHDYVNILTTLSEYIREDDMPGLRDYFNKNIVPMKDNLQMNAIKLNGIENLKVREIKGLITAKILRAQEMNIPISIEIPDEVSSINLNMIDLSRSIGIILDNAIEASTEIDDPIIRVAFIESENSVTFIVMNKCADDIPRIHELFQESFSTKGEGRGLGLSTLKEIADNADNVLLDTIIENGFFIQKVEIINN
Sequence of S. aureus agr-IV (Q309Z2 entry or part of it): as the sequence (Q309Z2 entry or part of it) above
Sequence of S. aureus agr-II (O33587 entry or part of it): as the sequence (O33587 entry or part of it) above
Sequence of S. epidermidis agr-III (Q8VSX2 entry or part of it): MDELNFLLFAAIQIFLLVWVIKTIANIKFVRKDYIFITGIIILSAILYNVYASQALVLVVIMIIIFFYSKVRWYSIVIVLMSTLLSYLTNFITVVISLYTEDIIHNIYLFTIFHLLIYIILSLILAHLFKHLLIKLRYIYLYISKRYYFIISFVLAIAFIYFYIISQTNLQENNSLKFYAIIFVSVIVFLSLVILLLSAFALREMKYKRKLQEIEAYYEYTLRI

`CC[C@H](C)[C@H](NC(=O)[C@@H](N)CC(=O)O)C(=O)N[C@H]1CSC(=O)[C@H](Cc2ccccc2)NC(=O)[C@H](Cc2ccc(O)cc2)NC(=O)[C@H](C)NC(=O)[C@H](CC(N)=O)NC1=O` [compound 8, S. lugdunensis AIP-I] (H-DICNAYF; thioester 3-C; N-terminus assumed): the IC50 (as a rule, the point on the concentration scale where inhibition reaches its midpoint) with S. aureus (SA) agr-II (ref (10)) is 419 nM; against S. aureus agr-II it was 234 nM; in the assay with S. aureus (SA) agr-III (ref (10)) it was 36.6 nM; at S. epidermidis agr-III, 66.8 ± 2.9 nM; against SA AgrC-III, greater than 1000 nM; in the assay with S. aureus (SA) agr-IV (ref (10)) it was greater than 1000 nM. Further, the “IC50, SA AgrC-II, b-lactamase assay” value against SA AgrC-II is “-b”. Moreover, the “IC50, SA AgrC-IV, b-lactamase assay” value against SA AgrC-IV was “-b”. In addition, the “QS interaction in words (inhibition / activation), S. aureus agr-IV” value on S. aureus agr-IV is recorded as “no effect at 1000 nM”.

On SA AgrC-I, `CC[C@H](C)[C@H](NC(=O)[C@@H](N)[C@@H](C)O)C(=O)N[C@@H](CO)C(=O)N[C@@H](CO)C(=O)N[C@H](C(=O)N[C@@H](CCCCN)C(=O)N1CCC[C@H]1C(=O)N[C@H]1CSC(=O)[C@H](C(C)C)NC(=O)[C@H](Cc2ccccc2)NC(=O)CNC(=O)[C@H]([C@@H](C)O)NC1=O)C(C)C` [compound 18, S. cohnii AIP-I] (H-TISSVKPCTGFV; thioester 8-C) gave an IC50 greater than 10000 nM. Also, the “IC50, SA AgrC-II, b-lactamase assay” value at SA AgrC-II is “-b”. Besides, the “IC50, SA AgrC-IV, b-lactamase assay” value against SA AgrC-IV is “-b”. At SA AgrC-III, the “IC50, SA AgrC-III, b-lactamase assay” value is “-b”.

On to `C[C@@H](O)[C@H](NC(=O)[C@H](CO)NC(=O)[C@@H](N)Cc1ccc(O)cc1)C(=O)N[C@H]1CSC(=O)[C@H](Cc2ccccc2)NC(=O)[C@H](Cc2ccc(O)cc2)NC(=O)[C@H](Cc2ccc(O)cc2)NC(=O)[C@H](CO)NC1=O` [compound 20, S. caprae AIP-I] (H-YSTCSYYF; thioester 4-C), for which the IC50 against SA AgrC-I was 5.7 ± 0.8 nM; in the assay on S. aureus (SA) agr-II (ref (15)) it was 0.26 ± 0.08 nM; with S. aureus (SA) agr-I (ref (15)), 0.6 ± 0.02 nM; at SA AgrC-II it was 252 ± 44 nM; with S. aureus (SA) agr-III (ref (15)), 0.2 nM; on SA AgrC-IV, 199 ± 19 nM. Moreover, in the assay on S. aureus (SA) agr-IV (ref (15)), the IC50 is 8.98 ± 0.32 nM. Moreover, the “IC50, SA AgrC-III, b-lactamase assay” value on SA AgrC-III is on record as “-a”.

Take `C[C@H](N)C(=O)N[C@@H](CC(N)=O)C(=O)N1CCC[C@H]1C(=O)N[C@H]1CSC(=O)[C@H](Cc2ccccc2)NC(=O)[C@H](Cc2ccc(O)cc2)NC(=O)CNC(=O)[C@H](C)NC1=O` [compound 21, S. pasteuri AIP-I] (H-ANPCAGYF; thioester 4-C): the IC50 at SA AgrC-I was 155 ± 34 nM; at SA AgrC-IV, greater than 1000 nM; against SA AgrC-III, 191 ± 18 nM. Also, the “IC50, SA AgrC-II, b-lactamase assay” value on SA AgrC-II is reported as “-b”.

As for `CC(C)C[C@H](NC(=O)[C@H](C)NC(=O)CNC(=O)[C@H](C)NC(=O)[C@@H](NC(=O)[C@H](C)N)[C@@H](C)O)C(=O)N1CCC[C@H]1C(=O)N[C@H]1CSC(=O)[C@H](Cc2ccccc2)NC(=O)[C@H](Cc2ccccc2)NC(=O)CNC(=O)CNC1=O` [compound 23, S. succinus AIP-I] (H-ATAGALPCGGFF; thioester 8-C), the IC50 on SA AgrC-I is 117 ± 26 nM; against SA AgrC-II it was 854 ± 65 nM; on SA AgrC-IV, greater than 1000 nM; against SA AgrC-III it was greater than 1000 nM.

S. epidermidis AIP-II [compound 6]: in the assay with S. aureus (SA) agr-II (at 100 nM, ref (11)), the “inhibition at 100 nM, SA agr-II” value was “no inhibition”. For the same molecule, the “effect from supernatant (% inhibition, activation or no effect), SE agr-I” value in assay [1] (from supernatant, ref (18)) is ~ 90%. Moreover, in [1] (ref (11)), the IC50 was 9.64 nM. The “effect at 10 µM, SE agr-III” value in [2] (at 10 µM, ref (11)) was “no effect”. The “effect from supernatant (% inhibition, activation or no effect), SE agr-III” value in [2] (from supernatant, ref (18)) is given as “no effect”. Moreover, the “effect at 10 µM, SE agr-II” value in assay [3] (at 10 µM, ref (11)) is listed as “activation”. The “effect from supernatant (% inhibition, activation or no effect), SE agr-II” value in assay [3] (from supernatant, ref (18)) was “activation”. The “inhibition at 100 nM, SA agr-I” value with S. aureus (SA) agr-I (at 100 nM, ref (11)) was “no inhibition”. Moreover, at SA AgrC-II, the “IC50, SA AgrC-II, b-lactamase assay” value was “-b”. The “inhibition at 100 nM, SA agr-III” value in the assay with S. aureus (SA) agr-III (at 100 nM, ref (11)) was “no inhibition”. At SA AgrC-IV, the “IC50, SA AgrC-IV, b-lactamase assay” value is “-b”. In addition, the “IC50, SA AgrC-III, b-lactamase assay” value against SA AgrC-III was “-b”. Further, in the assay on S. aureus (SA) agr-IV (at 100 nM, ref (11)), the “inhibition at 100 nM, SA agr-IV” value was “no inhibition”.

These data come from PMC12345137 (mBio, 2025).
